# According to article PMC4692482, “Structure and Stability of the Dimeric Triosephosphate Isomerase from the Thermophilic Archaeon Thermoplasma acidophilum” (PLoS ONE, 2015):
# Biological target: T1, TaTPI (Thermoplasma acidophilum, UniProt Q9HLB6)
# T1 construct: gene tpiA; full length, 216 residues, C-terminal His6-tag (pET-28a(+)), expressed in E. coli Rosetta 2(DE3)pLysS; 24,671 Da monomer; homodimer
# Assay: X-ray crystallography ([…] A)
# Assay type: binding
# Conditions: 20 mM G3P incubated with apo protein 4 h at 4 C; pH 8.5; active site (Lys9, His89, Glu137); substrate analogue
# T1 sequence (Q9HLB6 whole entry): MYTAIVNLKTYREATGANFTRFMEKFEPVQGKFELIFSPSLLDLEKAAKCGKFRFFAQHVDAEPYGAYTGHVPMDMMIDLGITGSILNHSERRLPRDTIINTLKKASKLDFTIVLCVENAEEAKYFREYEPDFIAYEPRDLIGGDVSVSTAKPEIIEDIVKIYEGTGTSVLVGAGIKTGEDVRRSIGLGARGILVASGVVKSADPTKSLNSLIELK
structure (smiles),measurement,value
"O=P(O)(O)OC[C@H](O)CO [G3P, glycerol-3-phosphate]",X-ray crystallography (2.17 A),G3P is well positioned at the active site of TaTPI with functionally conserved residues
